The assay relates to LTD4-induced bronchoconstriction. The assay can be described thus: Antagonism of LTD4-induced bronchoconstriction in guinea pigs. To be noted: for ED50 / inhibition in vivo at 1 mg/kg: Cavia porcellus; for inhibition in vivo at 1 mg/kg: read-out: percent inhibition at 1 mg/kg p.o., LTD4-induced bronchoconstriction (ID50 not determined). It is filed as in vivo, guinea pig (male, Hartley strain). As for the experimental part: Male guinea pigs (Hartley strain, Charles River) weighing 400-600 g were anesthetized with urethane (2 g/kg) intraperitoneally, and a polyethylene cannula was inserted into the jugular vein for intravenous drug administration. Tracheal pressure (cm of H2 O) was recorded from a Statham pressure transducer (P 32 AA). Propranolol was administered 5 minutes prior to challenge with LTD4. Two minutes later spontaneous breathing was arrested with succinylcholine chloride (1.2 mg/kg) administered intravenously, and the animals were ventilated with a Harvard (Model 680) small animal respirator set at 40 breaths/min and a 4.0 cc stroke volume. Control vehicle (DMSO) or test compound was administered through the cannula into the jugular vein 1 minute before the animals were challenged with a maximum constrictory dose of LTD4 ([…] I.V.) given intravenously. The change in tracheal pressure was averaged for control and drug-treated animals and percent inhibition was calculated. For determination of oral activity, animals were dosed with test compound or vehicle (PEG400) two hours prior to challenge with LTD4 ([…], i.v.).
The relative potency of test compounds administered by the intravenous and oral route was determined by administering increasing doses of test compound at a fixed pretreatment time. The median inhibitory dose (ID50 value) was determined by linear regression of log dose-responsecurves generated by at least 3 doses that caused statistically significant inhibition between 10 and 90%. The correlation coefficient for the regression line was always greater than 0.95. For determination of the time-course of inhibition for various compounds, the time between administration of compound and challenge with LTD4 was varied. Durations of action were defined as the time for inhibitory activity to decrease to 50%.

[1] abbreviates: iv, 1 min, I.V., compound 1 minute before LTD4 challenge, read-out: ID50 I.V., LTD4-induced bronchoconstriction.
[2] abbreviates: po, 2 h, p.o., compound two hours prior to LTD4 challenge, read-out: ID50 p.o., LTD4-induced bronchoconstriction.
Setting [3] is: I.V., 1 mg/kg, compound 1 minute before LTD4 challenge.
Setting [4] is: po, 2 h, p.o., 1 mg/kg, compound two hours prior to LTD4 challenge.

Molecules are shown by their SMILES. Like-named read-outs stand apart in the source and are kept apart here.

Regarding `COC(=O)c1ccccc1CC(=O)Nc1cccc(/C=C/c2nc(C3CCC3)cs2)c1` [Example 4, (E)-2-[2-[3-[2-[4-(Cyclobutyl)-2-thiazolyl]ethenyl]phenylamino]-2-oxoethyl]benzoic Acid Methyl Ester], the ED50 by setting is: under setting [1], 0.3 mg/kg; under setting [2], 0.3 mg/kg. As to `CN(C)C(=O)c1ccccc1CC(=O)Nc1cccc(/C=C/c2nc(C3CCC3)cs2)c1` [Example 5, (E)-2-[2-[3-[2-[4-(Cyclobutyl)-2-thiazolyl]ethenyl]phenylamino]-2-oxoethyl]-N,N-dimethylbenzamide], the ED50 under setting [1] stood at 0.005 mg/kg and the ED50 under setting [2] worked out at 0.6 mg/kg. For `O=C(Cc1ccccc1CO)Nc1cccc(/C=C/c2nc(C3CCC3)cs2)c1` [Example 6, (E)-2-[2-[3-[2-[4-(Cyclobutyl)-2-thiazolyl]ethenyl]phenylamino]-2-oxoethyl]benzyl Alcohol], the ED50 came out at 0.1 mg/kg under setting [1] and 0.3 mg/kg under setting [2]. `O=C(Cc1cccc(C(=O)O)c1)Nc1cccc(/C=C/c2nc(C3CCC3)cs2)c1` [Example 7b, (E)-3-[2-[3-[2-[4-(Cyclobutyl)-2-thiazolyl]ethenyl]phenylamino]-2-oxoethyl]benzoic acid]: the ED50 under setting [1] came out at 0.3 mg/kg. For the compound `O=C(Cc1ccc(C(=O)O)cc1)Nc1cccc(/C=C/c2nc(C3CCC3)cs2)c1` [Example 8b, (E)-4-[2-[3-[2-[4-(Cyclobutyl)-2-thiazolyl]ethenyl]phenylamino]-2-oxoethyl]benzoic acid], the “percent inhibition at 1 mg/kg I.V., LTD4-induced bronchoconstriction (ID50 not determined)” value (“percent inhibition … (ID50 not determined)” below) under setting [3] is given as 50 ± 6%.

Take `O=C(Cc1ccccc1C(=O)O)Nc1cccc(/C=C/c2nc(C3CCCC3)cs2)c1` [Example 9, (E)-2-[2-[3-[2-[4-(Cyclopentyl)-2-thiazolyl]ethenyl]phenylamino]-2-oxoethyl]benzoic acid]: the ED50 runs as follows: under setting [1], 0.005 mg/kg; under setting [2], 0.4 mg/kg. `O=C(Cc1ccccc1C(=O)O)Nc1cccc(/C=C/c2nc(C3CCCCC3)cs2)c1` [Example 10, (E)-2-[2-[3-[2-[4-(Cyclohexyl)-2-thiazolyl]ethenyl]phenylamino]-2-oxoethyl]benzoic acid]: the ED50 amounted to 0.02 mg/kg under setting [1] and 0.43 mg/kg under setting [2]. On to `O=C(Cc1ccccc1C(=O)O)Nc1cccc(/C=C/c2nc(C3CCCCCC3)cs2)c1` [Example 11i, (E)-2-[2-[3-[2-[4-(Cycloheptyl)-2-thiazolyl]ethenyl]phenylamino]-2-oxoethyl]benzoic acid], for which the ED50 under setting [1] is 0.02 mg/kg. The inhibition in vivo at 1 mg/kg under setting [4] was 42 ± 10%.

On to `O=C(Cc1ccccc1C(=O)O)Nc1cccc(/C=C/c2nc(C3CCCCCCC3)cs2)c1` [Example 12d, (E)-2-[2-[3-[2-[4-(Cyclooctyl)-2-thiazolyl]ethenyl]phenylamino]-2-oxoethyl]benzoic acid], for which the ED50 under setting [1] was determined as 0.15 mg/kg. Further, the inhibition in vivo at 1 mg/kg under setting [4] is 24 ± 4%. Turning to `Cc1ccc(NC(=O)Cc2ccccc2C(=O)O)cc1/C=C/c1nc(C(C)C)cs1` [Example 16g, (E)-2-[2-[4-Methyl-3-[2-[4-(1-methylethyl)-2-thiazolyl]ethenyl]phenylamino]-2-oxoethyl]benzoic acid], under setting [1], the ED50 worked out at 0.2 mg/kg. Besides, the inhibition in vivo at 1 mg/kg under setting [4] amounted to 24 ± 8%. As to `CCOC(=O)c1csc(/C=C/c2cccc(NC(=O)Cc3ccccc3C(=O)O)c2)n1` [Example 18c, (E)-2-[2-[3-[2-[4-(Ethoxycarbonyl)-2-thiazolyl]ethenyl]phenylamino]-2-oxoethyl]benzoic acid], the ED50 under setting [1] was 0.2 mg/kg. In addition, the inhibition in vivo at 1 mg/kg under setting [4] turned out to be 13 ± 3%. Take `O=C(Cc1ccccc1C(=O)O)Nc1cccc(/C=C/c2nc(C(=O)O)cs2)c1` [Example 19]: the “percent inhibition at 1 mg/kg, previous test” value (1 mg/kg, previous test (footnote ** to the I.V. value)) is given as 0 ± 0%. The “percent inhibition … (ID50 not determined)” value under setting [3] came to 12 ± 4%. With `O=C(Cc1ccccc1C(=O)O)Nc1cccc(/C=C/c2csc(C3CCC3)n2)c1` [Example 20h, (E)-2-[2-[3-[2-(2-Cyclobutyl-4-thiazolyl)ethenyl]phenylamino]-2-oxoethyl]benzoic acid], under setting [1], the ED50 was determined as 0.04 mg/kg. For the same compound, the inhibition in vivo at 1 mg/kg under setting [4] came to 48 ± 6%. Turning to `O=C(CCc1ccccc1C(=O)O)Nc1cccc(/C=C/c2nc(C3CCC3)cs2)c1` [Example 21b, (E)-2-[3-[3-[2-[4-(Cyclobutyl)-2-thiazolyl]ethenyl]phenylamino]-3-oxopropyl]benzoic acid], the ED50 runs as follows: under setting [1], 0.02 mg/kg; under setting [2], 8.2 mg/kg.

As for `O=C(NCc1ccccc1C(=O)O)c1cccc(/C=C/c2nc(C3CCC3)cs2)c1` [Example 22c, (E)-2-[[[[3-[2-(4-Cyclobutyl-2-thiazolyl)ethenyl]phenyl]carbonyl]amino]methyl]benzoic acid], the ED50 is, setting by setting: under setting [1], 0.04 mg/kg; under setting [2], 0.1 mg/kg.

For the compound `O=C(Cc1ccc([N+](=O)[O-])cc1C(=O)O)Nc1cccc(/C=C/c2nc(C3CCC3)cs2)c1` [Example 23, (E)-5-Nitro-2-[2-[3-[2-[4-(cyclobutyl)-2-thiazolyl]ethenyl]phenylamino]-2-oxoethyl]benzoic acid], the “percent inhibition … (ID50 not determined)” value under setting [3] is listed as 36 ± 6%. `O=C(Cc1ccc(Cl)cc1C(=O)O)Nc1cccc(/C=C/c2nc(C3CCC3)cs2)c1` [Example 24, (E)-5-chloro-2-[2-[3-[2-[4-(cyclobutyl)-2-thiazolyl]ethenyl]phenylamino]-2-oxoethyl]benzoic acid]: the ED50 runs as follows: under setting [1], 0.01 mg/kg; under setting [2], 0.2 mg/kg.

With `O=C(Cc1c(F)cccc1C(=O)O)Nc1cccc(/C=C/c2nc(C3CCC3)cs2)c1` [Example 25, (E)-3-fluoro-2-[2-[3-[2-[4-(cyclobutyl)-2-thiazolyl]ethenyl]phenylamino]-2-oxoethyl]benzoic acid], the ED50 under setting [1] stood at 0.03 mg/kg. Under setting [4], the inhibition in vivo at 1 mg/kg worked out at 36 ± 6%. Regarding `COc1ccc(CC(=O)Nc2cccc(/C=C/c3nc(C4CCC4)cs3)c2)c(C(=O)O)c1` [Example 26, (E)-5-Methoxy-2-[2-[3-[2-[4-(cyclobutyl)-2-thiazolyl]ethenyl]phenylamino]-2-oxoethyl]benzoic acid], the ED50 runs as follows: under setting [1], 0.03 mg/kg; under setting [2], 0.2 mg/kg. For `O=C(Cc1ccc(F)cc1C(=O)O)Nc1cccc(/C=C/c2nc(C3CCC3)cs2)c1` [Example 27, (E)-5-fluoro-2-[2-[3-[2-[4-(cyclobutyl)-2-thiazolyl]ethenyl]phenylamino]-2-oxoethyl]benzoic acid], under setting [1], the ED50 was found to be 0.2 mg/kg. Regarding `COc1cc(C(=O)O)ccc1CC(=O)Nc1cccc(/C=C/c2nc(C3CCC3)cs2)c1` [Example 28b, (E)-4-[2-[3-[2-[4-(cyclobutyl)-2-thiazolyl]ethenyl]phenylamino]-2-oxoethyl]-3-methoxybenzoic acid], under setting [1], the ED50 is 0.4 mg/kg. With `CC(=O)Oc1ccc(CC(=O)Nc2cccc(/C=C/c3nc(C4CCC4)cs3)c2)c(C(=O)O)c1` [Example 31, (E)-5-Acetoxy-2-[2-[3-[2-[4-(cyclobutyl)-2-thiazolyl]ethenyl]phenylamino]-2-oxoethyl]benzoic Acid], the ED50 reads like this: under setting [1], 0.004 mg/kg; under setting [2], 0.3 mg/kg.

The values above are taken from US5273986A, “Cycloalkylthiazoles” (Hoffmann-La Roche Inc., priority 1992, dated 1993).
